Results as given in patent US11072584B2, “Carbon monoxide releasing norbornenone compounds” (OTAGO INNOVATION LIMITED, priority 2015, dated 2021).
≈ marks a conversion by molar mass, not a printed value. Where a name gives a salt, the structure may show the parent alone. Read-outs that look alike come from different tables or passages of the source.

Experiments:
MDCK cells = assay: crystal violet cell adhesion (CVCA) cell toxicity assay
Solubility in water = type: physicochemical; conditions: for solubility (in words): water or physiological buffers; for solubility: water, 21° C.
[1] = Canis lupus familiaris, MDCK, read-out: EC50 (μM), Active Compound

SMILES	melting point	EC50 (MDCK cells; [1]) [µM]	also measured
CC(=O)OC[C@H]1O[C@@H](Oc2ccc(N3C(=O)c4c(C)c(-c5ccccc5)c(-c5ccccc5)c(C)c4C3=O)cc2)[C@H](OC(C)=O)[C@@H](OC(C)=O)[C@@H]1OC(C)=O [BP-14, N-(4-O-(2,3,4,6-tetra-O-acetyl-β-D-glucopyranosyl)phenyl)-3,6-dimethyl-4,5-diphenyl-3,6-phthalimide]	113 to 115 °C		
COC(=O)[C@H](CCCCN1C(=O)C2C3(C)C(=O)C(C)(C(c4ccccc4)=C3c3ccccc3)C2(Br)C1=O)NC(C)=O (stereo partly drawn) [oCOM-41, Methyl (2S)-2-acetamido-6-(3a-bromo-4,7-dimethyl-1,3,8-trioxo-5,6-diphenyl-1,3,3a,4,7,7a-hexahydro-2H-4,7-methanoisoindol-2-yl)hexanoate]		> 100	
CC12C(=O)C(C)(C(c3ccccc3)=C1c1ccccc1)C1(Br)C(=O)N(CCC(=O)NC(CO)(CO)CO)C(=O)C21 (centres unmarked) [oCOm-24, N-(2-Hydroxy-1,1-bis(hydroxymethyl)ethyl)-3-(3a-bromo-4,7-dimethyl-1,3,8-trioxo-5,6-diphenyl-3a,4,7,7a-tetrahydro-1H-4,7-methanoisoindol-2(2H)-yl)propanamide]		> 100	solubility (in words) (Solubility in water): decreased solubility; solubility (Solubility in water): 5000 µg/mL (≈ 8.18 mM)
CC12C(=O)C(C)(C(c3ccccc3)=C1c1ccccc1)C1(Br)C(=O)N(CCCCCC(=O)O)C(=O)C21 (centres unmarked) [oCOM-38, 6-(3a-bromo-4,7-dimethyl-1,3,8-trioxo-5,6-diphenyl-1,3,3a,4,7,7a-hexahydro-2H-4,7-methanoisoindol-2-yl)-hexanoic Acid]		> 100	
Cc1c2c(c(C)c(-c3ccccc3)c1-c1ccccc1)C(=O)N(c1ccc(O)c([N+](=O)[O-])c1)C2=O [BP-11, 2-(4-Hydroxy-3-nitrophenyl)-4,7-dimethyl-5,6-diphenyl-1H-isoindole-1,3(2H)-dione]	> 250 °C		
COC(=O)[C@@H](N)CCCCN1C(=O)C2C3(C)C(=O)C(C)(C(c4ccccc4)=C3c3ccccc3)C2(Br)C1=O (stereo partly drawn) [oCOm-30, Methyl (2S)-2-amino-6-(3a-bromo-4,7-dimethyl-1,3,8-trioxo-5,6-diphenyl-1,3,3a,4,7,7a-hexahydro-2H-4,7-methanoisoindol-2-yl)hexanoate Trifluoroacetic Acid Salt]		> 100	solubility (in words) (Solubility in water): water soluble
Cc1c2c(c(C)c(-c3ccccc3)c1-c1ccccc1)C(=O)N(CCNCCN)C2=O [BP-23, 2-(2-(2-Aminoethyl)aminoethyl)-4,7-dimethyl-5,6-diphenyl-1H-isoindole-1,3,8(2H)-diione Bis-trifluoroacetate Salt]			EC50 (MDCK cells; read-out: EC50 (μM), Inactive Compound, MDCK cells, inactive debromo or CO depleted analogues, 37° C.): > 100 µM
CC(C)(C)OC(=O)N[C@@H](CCCCN1C(=O)C2C3(C)C(=O)C(C)(C(c4ccccc4)=C3c3ccccc3)C2(Br)C1=O)C(=O)O (stereo partly drawn) [oCOm-27, (2S)-2-tert-butoxycarbonylamino-6-(3a-bromo-4,7-dimethyl-1,3,8-trioxo-5,6-diphenyl-1,3,3a,4,7,7a-hexahydro-2H-4,7-methanoisoindol-2-yl) hexanoic acid]	87 to 92 °C		
CC12C(=O)C(C)(C(c3ccccc3)=C1c1ccccc1)C1(Sc3ccccc3)C(=O)N(c3ccccc3)C(=O)C21 (centres unmarked) [oCOm-4, 3a-Phenylthio-3a,4,7,7a-tetrahydro-4,7-dimethyl-2,5,6-triphenyl-4,7-methano-1H-isoindole-1,3,8(2H)-trione]	193 °C		
Cc1nnc([C@@H](N)CCCCN2C(=O)C3C4(C)C(=O)C(C)(C(c5ccccc5)=C4c4ccccc4)C3(Br)C2=O)o1 (stereo partly drawn) [oCOM-45, (1S)-1-Amino-5-(3a-bromo-4,7-dimethyl-1,3,8-trioxo-5,6-diphenyl-1,3,3a,4,7,7a-hexahydro-2H-4,7-methanoisoindol-2-yl)-1-(5-methyl-1,3,-oxadiazol-2-yl)pentane Trifluoroacetic Acid Salt]		> 100	
CC12C(=O)C(C)(C(c3ccccc3)=C1c1ccccc1)C1(Br)C(=O)N(CCCC[C@H](N)C(=O)O)C(=O)C21 (stereo partly drawn) [oCOm-28, (2S)-2-Amino-6-(3a-bromo-4,7-dimethyl-1,3,8-trioxo-5,6-diphenyl-1,3,3a,4,7,7a-hexahydro-2H-4,7-methanoisoindol-2-yl)hexanoic Acid Trifluoroacetic Acid Salt]		> 100	solubility (in words) (Solubility in water): water soluble
CC12C(=O)C(C)(C(c3ccccc3)=C1c1ccccc1)C1(Cl)C(=O)N(c3ccccc3)C(=O)C21 (centres unmarked) [oCOm-2, 3a-Chloro-3a,4,7,7a-tetrahydro-4,7-dimethyl-2,5,6-triphenyl-4,7-methano-1H-isoindole-1,3,8(2H)-trione]	182 to 184 °C		
Cc1c2c(c(C)c(-c3ccccc3)c1-c1ccccc1)C(=O)N(CCNC(=O)OC(C)(C)C)C2=O [BP-20, Tert-Butyl (2-(4,7-dimethyl-1,3-dioxo-5,6-diphenylisoindolin-2-yl)ethyl)carbamate]	181 to 182 °C		
CCOC(=O)[C@@H](N)CCCCN1C(=O)C2C3(C)C(=O)C(C)(C(c4ccccc4)=C3c3ccccc3)C2(Br)C1=O (stereo partly drawn) [oCOm-32, Ethyl (2S)-2-amino-6-(3a-bromo-4,7-dimethyl-1,3,8-trioxo-5,6-diphenyl-1,3,3a,4,7,7a-hexahydro-2H-4,7-methanoisoindol-2-yl)hexanoate Trifluoroacetic Acid Salt]		> 100	solubility (in words) (Solubility in water): water soluble
CC12C(=O)C(C)(C(c3ccccc3)=C1c1ccccc1)C1([S+]([O-])c3ccccc3)C(=O)N(c3ccccc3)C(=O)C21 (centres unmarked) [oCOm-5, 3a-Phenylsulfinyl-3a,4,7,7a-tetrahydro-4,7-dimethyl-2,5,6-triphenyl-4,7-methano-1H-isoindole-1,3,8(2H)-trione]	186 °C		
CC(=O)OCCN1C(=O)c2c(C)c(-c3ccccc3)c(-c3ccccc3)c(C)c2C1=O [BP-16, 4,7-Dimethyl-2-(2-acetoxyethyl)-5,6-diphenyl-1H-isoindole-1,3(2H)-dione]	155 °C		
CN(C)C(=O)[C@@H](N)CCCCN1C(=O)C2C3(C)C(=O)C(C)(C(c4ccccc4)=C3c3ccccc3)C2(Br)C1=O (stereo partly drawn) [oCOM-36, N,N-Dimethyl (2S)-2-amino-6-(3a-bromo-4,7-dimethyl-1,3,8-trioxo-5,6-diphenyl-1,3,3a,4,7,7a-hexahydro-2H-4,7-methanoisoindol-2-yl)-hexanamide Trifluoroacetic Acid Salt]		> 100	
Cc1c2c(c(C)c(-c3ccccc3)c1-c1ccccc1)C(=O)N(CCN)C2=O [BP-21, 2-(4,7-Dimethyl-1,3-dioxo-5,6-diphenylisoindolin-2-yl)ethanaminium 2,2,2-trifluoroacetate, reference compound]			EC50 (MDCK cells; Canis lupus familiaris, MDCK, read-out: EC50 (μM), Inactive Compound): 21 µM
CC12C(=O)C(C)(C(c3ccccc3)=C1c1ccccc1)C1(Br)C(=O)N(Cc3cn(CCOC4OC(CO)C(O)C(O)C4O)nn3)C(=O)C21 [oCOm-49, 3a-Bromo-3a,4,7,7a-tetrahydro-4,7-dimethyl-2-[[1-(2-α-D-mannopyranosyloxy)ethyl]-1H-1,2,3-triazol-4yl]methyl-5,6-diphenyl-4,7-methano-1H-isoindole-1,3,8(2H)-trione]		> 200	solubility (in words) (Solubility in water): decreased water solubility; solubility (Solubility in water): 900 µg/mL (≈ 1.24 mM)
CCCOC(=O)[C@@H](N)CCCCN1C(=O)C2C3(C)C(=O)C(C)(C(c4ccccc4)=C3c3ccccc3)C2(Br)C1=O (stereo partly drawn) [oCOm-34, nPropyl (2S)-2-amino-6-(3a-bromo-4,7-dimethyl-1,3,8-trioxo-5,6-diphenyl-1,3,3a,4,7,7a-hexahydro-2H-4,7-methanoisoindol-2-yl)hexanoate Trifluoroacetic Acid Salt]		> 100	solubility (in words) (Solubility in water): water soluble
CC12C(=O)C(C)(C(c3ccccc3)=C1c1ccccc1)C1(S(=O)(=O)c3ccccc3)C(=O)N(c3ccccc3)C(=O)C21 (centres unmarked) [oCOm-6, 3a-Phenylsulfonyl-3a,4,7,7a-tetrahydro-4,7-dimethyl-2,5,6-triphenyl-4,7-methano-1H-isoindole-1,3,8(2H)-trione]	106 °C		
CC12C(=O)C(C)(C(c3ccccc3)=C1c1ccccc1)C1(Br)C(=O)N(c3ccc(O)c([N+](=O)[O-])c3)C(=O)C21 (centres unmarked) [oCOm-11, 3a-Bromo-3a,4,7,7a-tetrahydro-4,7-dimethyl-2-(4-hydroxy-3-nitrophenyl)-5,6-diphenyl-4,7-methano-1H-isoindole-1,3,8(2H)-trione]	207 °C (dec.)		
Cc1noc([C@@H](N)CCCCN2C(=O)C3C4(C)C(=O)C(C)(C(c5ccccc5)=C4c4ccccc4)C3(Br)C2=O)n1 (stereo partly drawn) [oCOM-43, (1S)-1-amino-5-(3a-bromo-4,7-dimethyl-1,3,8-trioxo-5,6-diphenyl-1,3,3a,4,7,7a-hexahydro-2H-4,7-methanoisoindol-2-yl)-1-(3-methyl-1,2,4-oxadiazol-5-yl)pentane Trifluoroacetic Acid Salt]		> 100	
Cc1c2c(c(C)c(-c3ccccc3)c1-c1ccccc1)C(=O)N(CCN(CCNC(=O)OC(C)(C)C)C(=O)OC(C)(C)C)C2=O [BP-22, Tert-Butyl (3-((tert-butoxycarbonyl)amino)ethyl)(2-(4,7-dimethyl-1,3-dioxo-5,6-diphenylisoindolin-2-yl)ethyl)carbamate]	202 to 205 °C		
COC(=O)[C@@H](N)CCCN1C(=O)C2C3(C)C(=O)C(C)(C(c4ccccc4)=C3c3ccccc3)C2(Br)C1=O (stereo partly drawn) [oCOm-40, Methyl (2S) 2-amino-5-(3a-bromo-4,7-dimethyl-1,3,8-trioxo-5,6-diphenyl-1,3,3a,4,7,7a-hexahydro-2H-4,7-methanoisoindol-2-yl)-pentanoate Trifluoroacetic Acid Salt]		> 100	solubility (in words) (Solubility in water): water soluble
Cc1c2c(c(C)c(-c3ccccc3)c1-c1ccccc1)C(=O)N(CCC(=O)NCCNC(=O)OC(C)(C)C)C2=O [BP-18, Tert-Butyl (2-(3-(4,7-dimethyl-1,3-dioxo-5,6-diphenylisoindolin-2-yl)propanamido)ethyl)carbamate]	183 to 185 °C		
